Test results as given in patent US9301987B2, “Anti-adipogenic compositions containing Piper betle and Dolichos biflorus” (LAILA NUTRACEUTICALS, priority 2007, dated 2016).

How the values were obtained:
[1] = system: diet induced obese rats; assay: Anti-obese activity in diet induced obese rats (treatment after 8 weeks high fat diet); format: in vivo, Sprague-Dawley rats; conditions: 7 mg/kg per day oral, vs untreated control group
Protocol: Selected healthy Sprague-Dawley rats were randomly assigned for control or various treatment groups (n=6). All the animals allocated for the study were made obese through dietary intervention by feeding high fat diet ad libitum for 8 weeks. After 8 weeks, the treatment group of animals was given oral administration of 250 mg/kg of Piper betle 60% methanol extract per day in 10 mL of 0.5% CMC, using gastric tube for 8 week study duration. The control group of animals was given 10 ml/kg of 0.5% CMC. The animals of positive control group were given 7 mg/kg sibutramine per day in 10 mL of 0.5% CMC. Food and water consumptions were recorded daily, body weights were recorded weekly and fasting blood samples were collected before initiation, after 4th week and 8th week (termination) of the study.
Selected healthy Sprague-Dawley rats were randomly assigned to control or various treatment groups (n=6). All the animals allocated for the study were made obese through dietary intervention by feeding high fat diet ad libitum for 8 weeks. […] Food and water consumption were recorded daily, body weights were recorded weekly and fasting blood samples were collected before initiation, after 4th week and 8th week (termination) of the study.

[2] = system: diet induced obesity in rats; assay: Protective effect against diet induced obesity in rats (treatment simultaneous with high fat diet); format: in vivo, Sprague-Dawley rats; conditions: 7 mg/kg per day oral, 8 weeks, vs untreated control group
Protocol: Selected healthy Sprague-Dawley rats were randomly assigned to control or various treatment groups (n=6). All the animals allocated for protective phase of the study were on dietary intervention by feeding high fat diet ad libitum and the animals allocated to treatment groups were simultaneously given oral administration of 250 mg/kg Piper betle hydroalcohol extract per day in 10 mL of 0.5% CMC, using gastric tube for the entire 8 week study duration. The test animals of the control group were simultaneously given 10 ml/kg 0.5% CMC. The animals of positive control group were given 7 mg/kg sibutramine in 10 mL of 0.5% CMC. Food and water consumptions were recorded daily, body weights were recorded weekly and fasting blood samples were collected before initiation, after 4th week and 8th week (termination) of the study. […] Upon administration of Piper betle alcohol extract for a period of 60 days, the level of triglyceride in the obese rats was reduced by 33%. The levels of serum cholesterol and LDL were reduced by 22% and 23% respectively, whereas the level of HDL was increased by 11%.
Selected healthy Sprague-Dawley rats were randomly assigned to control or various treatment groups (n=6). […] Food and water consumption were recorded daily, body weights were recorded weekly and fasting blood samples were collected before initiation, after 4th week and 8th week (termination) of the study. […]

CC(C)CC(N(C)C)C1(c2ccc(Cl)cc2)CCC1 (centres unmarked) [sibutramine]
reduction in mean body weight gain [1]: ~87%
reduction (protection) in weight gain [2]: 44.4%
